SMILES strings stand for the structures. Structures can show the parent of a compound that is named as a salt.

For the compound `Cl.NCCc1ccnc(-c2nc(=O)c3ccccc3s2)c1`, the melting point was 238 °C (dec.).

Regarding `Cc1cccc2c(=O)nc(-c3cccc(C(=O)NCCCCCCN)n3)sc12.Cl`, the melting point turned out to be 240 °C.

On to `CCOP(=O)(Cc1cccc(-c2nc(=O)c3ccccc3s2)n1)OCC`, for which the melting point lay within 115.5 to 116.5 °C.

`CCOP(=O)(CCc1cccc(-c2nc(=O)c3ccccc3s2)n1)OCC`: the melting point lay within 148.8 to 149.8 °C.

`CCOP(=O)(CCc1ccnc(-c2nc(=O)c3ccccc3s2)c1)OCC` showed a melting point of 102 to 103.2 °C.

On to `CCOP(=O)(CCc1ccnc(-c2nc(=O)c3ccc(Cl)cc3s2)c1)OCC`, for which the melting point lay in the range of 137.7 to 139.1 °C.

For the compound `O=c1nc(-c2cccc(CN3CCC(O)(c4ccc(Cl)cc4)CC3)n2)sc2ccccc12`, the melting point lay within 151 to 153 °C.

`Cl.O=c1nc(-c2cc(C3CCCN3)ccn2)sc2ccccc12` (stereo not drawn): the melting point fell in the range of 219.4 to 221.4 °C.

`NCCCCCCNC(=O)c1cccc(-c2nc(=O)c3ccccc3s2)n1` (as salt: hydrochloride) [Example 107, N-(6-Aminohexyl)-6-(4-oxo-4H-1,3-benzothiazin-2-yl)-2-pyridinecarboxamide hydrochloride]: the melting point is 95.2 to 97.6 °C.

For the compound `NCc1cccc(-c2nc(=O)c3ccccc3s2)n1` (as salt: trifluoroacetic acid salt) [Example 203, 2-[6-(Aminomethyl)-2-pyridyl]-4H-1,3-benzothiazine-4-one trifluoroacetic acid salt], the melting point fell in the range of 184.5 to 186.5 °C.

In the case of `NCCc1cccc(-c2nc(=O)c3ccccc3s2)n1` (as salt: trifluoroacetic acid salt) [Example 220, 2-[6-(2-Aminoethyl)-2-pyridyl]-4H-1,3-benzothiazine-4-one trifluoroacetic acid salt], the melting point was in the range of 206.2 to 207.1 °C.

`NCCc1ccnc(-c2nc(=O)c3ccccc3s2)c1` (as salt: trifluoroacetic acid salt) [Example 221, 2-[4-(2-Aminoethyl)-2-pyridyl]-4H-1,3-benzothiazine-4-one trifluoroacetic acid salt] gave a melting point of 209 to 210.7 °C.

`NCCc1ccnc(-c2nc(=O)c3ccc(Cl)cc3s2)c1` (as salt: trifluoroacetic acid salt) [Example 223, 2-[4-(2-Aminoethyl)-2-pyridyl]-7-chloro-4H-1,3-benzothiazine-4-one trifluoroacetic acid salt]: the melting point is 212 °C (dec.).

With `O=c1nc(-c2cc(C3CCCN3)ccn2)sc2ccccc12` (stereo not drawn) (as salt: trifluoroacetic acid salt) [Example 353, 2-[4-(2-Pyrrolidinyl)-2-pyridyl]-4H-1,3-benzothiazine-4-one trifluoroacetic acid salt], the melting point is 187.5 to 189 °C.

As for `O=c1nc(-c2ccco2)sc2ccccc12` [Example 1, 2-(2-Furyl)-4H-1,3-benzothiazine-4-one], the melting point lay within 170 to 171.5 °C.

On to `O=c1nc(-c2cccs2)sc2ccccc12` [Example 2, 2-(2-Thienyl)-4H-1,3-benzothiazine-4-one], for which the melting point is 157.7 to 158.2 °C.

Take `O=c1nc(-c2ccc3ccccc3n2)sc2ccccc12` [Example 3, 2-(2-Quinolinyl)-4H-1,3-benzothiazine-4-one]: the melting point is 262.7 to 263.4 °C.

With `O=c1nc(-c2cnc3ccccc3c2)sc2ccccc12` [Example 4, 2-(3-Quinolinyl)-4H-1,3-benzothiazine-4-one], the melting point was in the range of 216 to 217 °C.

Compound `CC(C)(C)OC(=O)CCc1cccc(-c2nc(=O)c3ccc(Cl)cc3s2)n1` [Example 5, tert-Butyl 3-[6-(7-chloro-4-oxo-4H-1,3-benzothiazin-2-yl)-2-pyridyl]propanoate] had a melting point of 167.9 to 168.2 °C.

Turning to `O=C(O)CCc1cccc(-c2nc(=O)c3ccc(Cl)cc3s2)n1` [Example 6, 3-[6-(7-Chloro-4-oxo-4H-1,3-benzothiazin-2-yl)-2-pyridyl]propionic acid], the melting point is 224.4 to 224.7 °C.

The compound `Cc1cccnc1-c1nc(=O)c2ccccc2s1` [Example 8, 2-(3-Methyl-2-pyridyl)-4H-1,3-benzothiazine-4-one] returned a melting point of 149.9 to 151.6 °C.

The compound `O=c1nc(-c2ccccn2)sc2ccc(Cl)cc12` [Example 9, 6-Chloro-2-(2-pyridyl)-4H-1,3-benzothiazine-4-one] gave a melting point of 269.4 to 270.1 °C.

Consider `O=c1nc(-c2ccccn2)sc2ccc(Br)cc12` [Example 11, 6-Bromo-2-(2-pyridyl)-4H-1,3-benzothiazine-4-one], for which the melting point is 253 to 253.7 °C.

As for `Cc1cccc2c(=O)nc(-c3ccccn3)sc12` [Example 12, 8-Methyl-2-(2-pyridyl)-4H-1,3-benzothiazine-4-one], the melting point was 197.8 to 198.5 °C.

`Cc1ccc2sc(-c3ccccn3)nc(=O)c2c1` [Example 13, 6-Methyl-2-(2-pyridyl)-4H-1,3-benzothiazine-4-one]: the melting point is 219.8 to 220.8 °C.

Consider `COc1cc2sc(-c3ccccn3)nc(=O)c2cc1OC` [Example 14, 6,7-Dimethoxy-2-(2-pyridyl)-4H-1,3-benzothiazine-4-one], for which the melting point lay in the range of 236.3 to 237.5 °C.

In turn, `O=c1nc(-c2ccc[nH]2)sc2ccccc12` [Example 15, 2-(1H-Pyrrol-2-yl)-4H-1,3-benzothiazine-4-one] had a melting point of 202.4 to 203.2 °C.

In the case of `Cc1ccc(-c2nc(=O)c3ccccc3s2)n1C` [Example 16, 2-(1,5-Dimethyl-1H-pyrrol-2-yl)-4H-1,3-benzothiazine-4-one], the melting point was in the range of 194.3 to 195.7 °C.

For `Cc1cccc2sc(-c3ccccn3)nc(=O)c12` [Example 17, 5-Methyl-2-(2-pyridyl)-4H-1,3-benzothiazine-4-one], the melting point lay within 150.8 to 151.3 °C.

For `COc1cccc2c(=O)nc(-c3ccccn3)sc12` [Example 18, 8-Methoxy-2-(2-pyridyl)-4H-1,3-benzothiazine-4-one], the melting point fell in the range of 191.2 to 191.4 °C.

For the compound `O=c1nc(-c2ccccn2)sc2ncccc12` [Example 22, 2-(2-Pyridyl)-4H-pyrido[3,2-e][1,3]thiazine-4-one], the melting point was 234.7 to 234.9 °C.

`Cc1cc(C)c2sc(-c3ccccn3)nc(=O)c2c1` [Example 24, 6,8-Dimethyl-2-(2-pyridyl)-4H-1,3-benzothiazine-4-one] had a melting point of 245 to 245.8 °C.

Take `COc1ccnc(-c2nc(=O)c3ccccc3s2)c1` [Example 25, 2-(4-Methoxy-2-pyridyl)-4H-1,3-benzothiazine-4-one]: the melting point is 214.1 to 214.6 °C.

With `CCOC(=O)c1cccc(-c2nc(=O)c3ccccc3s2)n1` [Example 26, Ethyl 6-(4-oxo-4H-1,3-benzothiazin-2-yl)-2-pyridinecarboxylate], the melting point fell in the range of 170 to 172.2 °C.

As to `CCOC(=O)c1ccnc(-c2nc(=O)c3ccccc3s2)c1` [Example 27, Ethyl 2-(4-oxo-4H-1,3-benzothiazin-2-yl)isonicotinate], the melting point lay in the range of 235.9 to 236.7 °C.

The compound `CCCNc1ccc(-c2nc(=O)c3ccccc3s2)cn1` [Example 31, 2-[6-(Propylamino)-3-pyridyl]-4H-1,3-benzothiazine-4-one] registered a melting point of 210.1 to 210.6 °C.

As usually defined, the melting point is the temperature of the solid-liquid transition.
